Series [1] is described as follows: Storage stability (morphology and physicochemical characteristics). As to conditions: Vemurafenib obtained as per the present process.
The conditions of series [2]: cited from earlier work; for Solubility in water: marketed/prior reported crystalline Form II, from EMEA scientific discussion of Zelboraf.
The conditions of series [3]: European assessment report of Zelboraf; low solubility and permeability; cited from earlier work.
Another series in a line: Solubility in water. As to conditions: product as per the present invention. It counts as physicochemical.

Where a name gives a salt, the structure may show the parent alone. Read-outs that look alike come from different tables or passages of the source.

Regarding `CCCS(=O)(=O)Nc1ccc(F)c(C(=O)c2c[nH]c3ncc(-c4ccc(Cl)cc4)cc23)c1F` [Vemurafenib, propane-1-sulfonic acid-{3-[5-(4-chlorophenyl)-1H-pyrrolo[2,3-b]pyridine-3-carbonyl]-2,4-difluoro-phenyl}-amide], the “Stable to handle and store without significant change in morphology and physicochemical characteristics” value in series [1] was “more than 6 months”. Further, the “Solubility in aqueous media” value in series [2] (background description of the drug substance) was “practically insoluble”. The Solubility in water in series [2] was less than 0.1 µg/mL. The “Biopharmaceutics Classification System class” value in series [3] is listed as “Class IV”.

With `CCCS(=O)(=O)Nc1ccc(F)c(C(=O)c2c[nH]c3ncc(-c4ccc(Cl)cc4)cc23)c1F` [Form-II, propane-1-sulfonic acid-{3-[5-(4-chlorophenyl)-1H-pyrrolo[2,3-b]pyridine-3-carbonyl]-2,4-difluoro-phenyl}-amide], the Solubility in water in series [2] and in series [2] (listed as Crystalline Vemurafenib (Form II)) was less than 0.1 µg/mL in each case.

For `CCCS(=O)(=O)Nc1ccc(F)c(C(=O)c2c[nH]c3ncc(-c4ccc(Cl)cc4)cc23)c1F` [Vemurafenib trifluoro methane sulfonic acid salt], the Solubility in water in “Solubility in water” was no less than 1 µg/mL.

In the case of `CCCS(=O)(=O)Nc1ccc(F)c(C(=O)c2c[nH]c3ncc(-c4ccc(Cl)cc4)cc23)c1F` [Form-SVM, propane-1-sulfonic acid-{3-[5-(4-chlorophenyl)-1H-pyrrolo[2,3-b]pyridine-3-carbonyl]-2,4-difluoro-phenyl}-amide], in the series “Solubility in water”, the Solubility in water was greater than 1 µg/mL. Moreover, the solubility (in general, the concentration that dissolves in the medium under given conditions) in the series “Solubility in water” (water) was greater than 1 µg/mL.

The record behind these values is patent US10414764B2, “Substantially pure vemurafenib and its salts” (SHILPA MEDICARE LIMITED, priority 2014, dated 2019).
